Patent US20240108003A1, “COMPOSITIONS AND METHODS FOR IMPROVING PLANT PERFORMANCE” (Advanced Crop Chemistry, priority 2022, published 2024)
≈ marks a conversion by molar mass, not a printed value.

Legend:
physchem = conditions: aqueous solutions
leaf lettuce seedlings = test: Dry weight and carbon fixation capability in lettuce; assay type: in vivo; conditions: weekly foliar 100 micromolar
Procedure: Sets (replicates) of leaf lettuce seedlings were treated with 2HOP or left untreated. Seedlings were grown in a greenhouse (75° F.) with ambient light, supplied with a standard liquid nutrient solution. The treated plants received weekly foliar sprays containing 100 micromolar 2HOP. Each replicate contained 20 plants in a tray. All plants were assessed for each prescribed parameter. For all parameter values vs control p=<0.05. RUBISCO is ribulose bisphosphate carboxylase, the major carbon-fixing enzyme.

[1] = tested on: Peace Lily (Spathiphyllum); test: Cold tolerance in a cold sensitive plant; assay type: in vivo; conditions: foliar 1 g/L; 4 days of 34-35° F. for 5-6 hours/day one week after treatment
Procedure: The popular ornamental plant, the “Peace Lily”, is in the genus Spathiphyllum and all species are indigenous to the tropics. […] Three groups of containerized plants (in 6-inch pots, growing in a standard potting media) were established, and foliarly treated with 1 g/L 2HOP or LPGA. A surfactant (polyalkyl glucoside) at 0.25% v/v was added to both treatments to improve leaf coverage. Plants were treated and one week later were exposed 4 days to a diurnal regime of low temperatures (34° F. to 35° F.) for at least 5-6 hours/day and a high temperature of 55° F. to 57° F. for the remainder of the day. Plants were under a natural light regime. […] See Table 10 in FIG. 7A and FIG. 7B.

oat seedlings [2] = test: Nitrate uptake rate of hydroponic oat seedlings; assay type: in vivo; conditions: first four hours of treatment
Procedure: Oat seedlings were either treated or untreated and their rates of nitrogen uptake were measured. Oat seedlings were hydroponically grown in a greenhouse under ambient light at 75° F. with a complete standard soluble nutrient solution. They were acclimated to constant light, then deprived of nitrogen for a period, and then their nitrogen (nitrate) was replenished with or without 2HOP in the nutrient solution. The plant root systems were submerged in the appropriate solutions and the plants were allowed to grow and take up nitrate. The depletion of nitrate from the solution was measured every four hours to determine the rate of nitrate uptake by the plants.

oat seedlings [3] = test: Proline accumulation in oat seedlings; assay type: in vivo; conditions: weekly foliar 100 micromolar, 3 weeks; untreated undetectable
Procedure: Sets of oat seedlings were grown and either treated or not treated with 2-hydroxy-5-oxoproline. The plants were grown in a greenhouse at 75° F. with ambient light and provided a standard complete nutrient plant food. Weekly foliar treatments were applied with 100 micromolar 2HOP began at the two-true leaf stage and continued for 3 weeks. Leaves from 20 plants were sampled and the free pools of proline were measured.

[4] = tested on: Wheat seeds (Skyfall variety); test: Seed treatment, field grown wheat emergence and yield; assay type: in vivo
Description: The treatments were pre-diluted in an equivalent of 2 liters of water and applied to one ton of seed. The seeds were planted in the fall at a rate of 200 kg/ha.

[5] = tested on: Zymoseptoria tritici (Septotia tritici); test: Growth of fungal plant pathogen on amended potato dextrose agar (colony surface area); assay type: cell-based; conditions: 0.5 g/L in buffered PDA pH 6.2, 10 days, darkness, 68° F.
Procedure: Zymoseptoria tritici (Septotia tritici) was grown in petri dishes on buffered (pH 6.2) potato dextrose agar (PDA), amended with penicillin (100 mg/L) and streptomycin (100 mg/L) as well as 2HOP (0.5 g/L) or […]). Five replicate plates/treatments were used and the cultures were grown for 10 days in darkness at 68° F. At the end of the 10-day period, the cultures were assessed in terms of the total surface area of growth of the colonies.

oat seedlings [6] = test: Soil application, carbon fixation capability in greenhouse grown oats; assay type: in vivo; conditions: soil drench 75 nanomoles daily; for increase of CO2 fixation compared to the untreated: plants 28 days old
Procedure: Sets (replicates) of oat seedlings were treated with 2HOP, L-PGA, or left untreated. Seeds were planted in standard potting soil in a greenhouse at a constant 75° F. under natural light, supplied a standard liquid nutrient solution, and treated daily with 75 nanomoles of either 2HOP or L-PGA beginning 14 days after seedling emergence. The treatments were applied as a soil drench. The CO2 fixation rates were measured when plants were 28 days old. The ribulose bisphosphate carboxylase (RUBISCO) activation state was measured when plants were 26 days old. The rates for 20 plants were averaged for each set of plants. […] L-PGA increased CO2 fixation compared to the untreated by 21%. However, when 2HOP is compared to L-PGA in terms of CO2 fixation, 2HOP fixed CO2 at over an 11% higher rate (see Table 14).

lettuce plants = test: Foliar treatment of lettuce plants, tissue aromatic amino acids; assay type: in vivo; conditions: 0.5 g/L
Description: This is further supported by the data in Table 4 where foliar treatment of lettuce plants with […]) or 2HOP (0.5 g/L) increased the tissue levels of aromatic amino acids which are synthesized in the Shikimic acid pathway, a pathway that has a known role in modulation of plant innate tolerance to abiotic and biotic stresses such as disease.

Pepper and tomato plants = test: Leaf numbers, leaf area and dry weight of greenhouse-grown tomato and pepper; assay type: in vivo; conditions: foliar 1 g/L or 0.5 g+0.5 g/L, assessed at eight weeks
Procedure: Pepper and tomato plants were grown from seedlings for eight weeks in a greenhouse with ambient light at a constant 75° F. temperature. All plants received a standard fertigation treatment. Plants were destructively assessed at eight weeks. Each treatment had 20 single-plant replicates. Plants were treated with foliar applications of 2HOP (1 g/L water), […] water), or […] water). Each plant received approximately 50 ml of spray solution (sprayed to drip). All treatments included a wetting agent (polyalkyl glucoside) at 0.025% v/v addition. Plants received a light, cover spray at week 4. Plants were assessed in terms of leaf number per plant, leaf area/plant, and total dry weight/plant. In addition, at harvest, a composite leaf sample (10 leaves/plant, 200 leaves total) from each tomato treatment was collected, pooled with the other replicates, and assessed for elemental content which is presented in Table 18.

[7] = tested on: Hard Red Wheat seeds (variety Glenn); test: Seed treatment, greenhouse-grown wheat leaf emergence; assay type: in vivo; conditions: greenhouse 65° F.
Procedure: The treatments were pre-diluted in an equivalent of 2 liters of water and applied to one ton of seed. The seeds were planted in a 30 cm×30 cm flat tray at 1 seed/cm^2 in a naturally illuminated greenhouse maintained at 65° F. See Table 19 in FIG. 14.

oat seedlings [8] = test: Leaf protein content of oat seedlings; assay type: in vivo; conditions: three weekly foliar treatments 100 micromolar
Procedure: Sets of oat seedlings were treated or untreated with 2HOP and the total foliar protein content was compared. Seedlings were greenhouse-grown at 75° F. under ambient light and provided a standard complete nutrient. The seedlings were given three weekly foliar treatments with 2HOP (100 micromolar) beginning at the two-true leaf stage.

Wheat (Winter White) = test: Herbicide phytotoxicity on greenhouse wheat with and without 2HOP or L-PGA; assay type: in vivo; conditions: for phytotoxic impact of herbicides on wheat: combined with herbicides, foliar, assessed 10 days after application; for canopy biomass compared to the untreated: solo applications, 10 days post-treatment, visual
Procedure: Wheat (Winter White) seeds (5 g) were sown in a 1-gallon pot in a greenhouse under natural light with a diurnal temperature range of 75° F. to 90° F. Various herbicides were applied alone or in combinations with L-PGA or 2HOP. Materials were applied at the equivalent rate of 100 L water/Ha with 0.25% v/v polyalkyl glucoside added as a wetting agent. There were 4 replicates per treatment, with 1 pot/replicate. 10 days after sowing, plants received a light cover spray at an equivalent application volume of 25 gallons/acre. Plants were destructively assessed 10 days later by measuring the total above-ground biomass of each replicate.

[9] = tested on: free-living (beneficial nematodes); conditions: in vivo
Procedure: (§1) Grapevines were treated with L-PGA alone or in combination with Nemacur® at two sites in California. […] Vines at both sites were 6 years old and replanted into sandy soil (CEC <7 meq/100 g soil) previously planted with vines. […] Site 2 was in Fresno County (var: Thompson seedless) and at this site several parasitic nematode species were in evidence (Table 8). Several treatments were undertaken as per Tables 6 & 7. Untreated vines received the standard grower cultural management programs. At both sites the plants were ungrafted. At Site 1, soil levels of nematodes were assessed prior to the onset of treatments and at various times throughout the trial (as given in Table 7). Plants were treated in the spring, summer, and fall and assessed 12, 13, 15 and, 24 months later at Site 1. Yield data were collected at both sites. Site 1 was treated for two seasons and yield was collected over two seasons. At Site 2, yields were collected and soil nematode levels were assessed 18 months after the onset of the treatments. Site 2 was only treated for one season and only one crop year was assessed.

plant parasitic nematode = test: Soil plant parasitic nematode populations, grapevines, Site 2; assay type: in vivo, nematodes; conditions: Site 2, L-PGA combined with Nemacur
Procedure: L-PGA was applied by drenching the roots with a solution (5 liters per plant) containing 1 g/L L-PGA. Nemacur® 400ec was applied as a labelled commercial treatment to specific rows at the trial locations by injection through the micro irrigation system (7.5 ml/vine). Each treatment comprised 20 vines in five replicate blocks (4 vines/replicate). […] Several treatments were undertaken as per Tables 6 & 7. Untreated vines received the standard grower cultural management programs. At both sites the plants were ungrafted. […] Yield data were collected at both sites.

[10] = tested on: Root Knot nematode (Meloidogyne incognita, M. javanica, M. arenaria, and M. hapla); test: Soil Root Knot nematode populations, grapevines, Site 1; assay type: in vivo; conditions: Site 1, after 15 months
Procedure: as §1

Grapevines = test: Yield from grapevines grown in nematode infested soil; assay type: in vivo, grapevine; conditions: L-PGA root drench 1 g/L, Nemacur 7.5 ml/vine, vs untreated vines
Procedure: as §1

[11] = tested on: Fusarium graminearum Schwabe Group 2; assay type: in vivo, Fusarium graminearum on wheat; conditions: foliar applications to infected wheat; ELISA on pooled grain

O=C1CC[C@@](O)(C(=O)O)N1 [2HOP, 2-hydroxy-5-oxoproline]
solubility (physchem): 145 to 435 mg/mL (≈ 999 to 3000 mM) | elevation of CO2 fixation (leaf lettuce seedlings): > 50% | elevation of RUBISCO activation (leaf lettuce seedlings): 129% | elevation of biomass (leaf lettuce seedlings; average across all biomass parameters): 34% | cold damage compared with untreated plants [1]: less cold damage | rate of nitrate uptake relative to untreated counterparts (oat seedlings [2]): approximately double | rate of nitrate uptake (oat seedlings [2]; untreated 5.8): 11.5 umol/gfwt/h | free proline pools in leaves (oat seedlings [3]): 2.6 micromol/g fwt | wheat yield compared to the untreated plots [4]: increased | direct suppression of fungal growth (total surface area of colonies) [5]: no direct suppression of fungal growth | CO2 fixation rate, 2HOP compared to L-PGA (oat seedlings [6]; higher rate than L-PGA): > 11% | increase of RUBISCO activation (oat seedlings [6]; plants 26 days old): 48% | increase of CO2 fixation compared to the untreated (oat seedlings [6]): 34% | tissue levels of aromatic amino acids (lettuce plants): increased | number of leaves, leaf area, and total dry weight (Pepper and tomato plants): greatest increases | leaf emergence compared to the untreated group [7]: increased | total foliar fresh weight, % of the control plants (oat seedlings [8]): 183% | total foliar protein, % of untreated control plants (oat seedlings [8]): 252% | total protein in the foliar parts, % of untreated control plants (oat seedlings [8]): 252% | foliar protein concentration (oat seedlings [8]; control 6.0): 8.8 mg/g fresh weight | phytotoxic impact of herbicides on wheat (Wheat (Winter White)): suppression of the phytotoxic impact | canopy biomass compared to the untreated (Wheat (Winter White)): visual increase in canopy biomass

O=C1CC[C@@H](C(=O)O)N1 [L-PGA, L-pyroglutamate]
effect on free-living (beneficial nematodes) [9]: minimal effect | efficacy of Nemacur in soil plant parasitic nematode population suppression (plant parasitic nematode): increased the efficacy | cold damage compared with untreated plants [1]: less cold damage | wheat yield compared to the untreated plots [4]: increased | direct suppression of fungal growth (total surface area of colonies) [5]: no direct suppression of fungal growth | increase of CO2 fixation compared to the untreated (oat seedlings [6]): 21% | soil Root Knot nematode populations [10]: reduced | yield of grapevines (Grapevines): elevated yield | tissue levels of aromatic amino acids (lettuce plants): increased | increase of emergence versus the untreated [7]: 19% | leaf emergence compared to the untreated group [7]: increased | phytotoxic impact of herbicides on wheat (Wheat (Winter White)): suppression of the phytotoxic impact | canopy biomass compared to the untreated (Wheat (Winter White)): visual increase in canopy biomass

calcium phosphite
DON grain levels [11]: largest reduction
